In US9062041B2 (Bayer Intellectual Property GmbH, priority 2011, dated 2015):

Key:
Format in all cases: cell-based
[1] = molecular target: T1, human PGD receptor (Homo sapiens, UniProt Q13258); assay: cAMP antagonism test on the human prostaglandin D receptor (HTRF cAMP detection); conditions: selectivity towards hDP, IC50 measured by cAMP antagonism test
T1 sequence (Q13258 1-359): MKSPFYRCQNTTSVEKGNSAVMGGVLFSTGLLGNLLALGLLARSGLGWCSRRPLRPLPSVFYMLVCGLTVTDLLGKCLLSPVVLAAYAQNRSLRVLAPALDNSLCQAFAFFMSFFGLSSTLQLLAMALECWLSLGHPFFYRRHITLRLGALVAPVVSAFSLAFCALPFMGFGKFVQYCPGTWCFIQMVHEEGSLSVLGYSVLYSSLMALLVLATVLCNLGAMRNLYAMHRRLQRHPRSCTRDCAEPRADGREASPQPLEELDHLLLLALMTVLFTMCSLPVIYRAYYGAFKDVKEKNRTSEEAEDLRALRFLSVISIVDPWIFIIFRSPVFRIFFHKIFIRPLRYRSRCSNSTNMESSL
In short: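 Cells pre-mixed with cAMP-d2 were preincubated with compound (0.8 nM–16.5 μM) for 20 min at RT, then stimulated with 3× PGD2 solution (6 nM, in PBS-IBMX) for 30 min at RT. After lysis (20 min), HTRF read at 665/620 nm; antagonism seen as rise in FRET ratio.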

[2] = molecular target: EP2 subtype of the human PGE2 receptor (Homo sapiens, UniProt P43116); assay: cAMP antagonism test on the human EP2 receptor (HTRF cAMP detection); conditions: hEP2 receptor, read-out: Antagonism hEP2 IC50
Sequence of EP2 subtype of the human PGE2 receptor (P43116 whole entry): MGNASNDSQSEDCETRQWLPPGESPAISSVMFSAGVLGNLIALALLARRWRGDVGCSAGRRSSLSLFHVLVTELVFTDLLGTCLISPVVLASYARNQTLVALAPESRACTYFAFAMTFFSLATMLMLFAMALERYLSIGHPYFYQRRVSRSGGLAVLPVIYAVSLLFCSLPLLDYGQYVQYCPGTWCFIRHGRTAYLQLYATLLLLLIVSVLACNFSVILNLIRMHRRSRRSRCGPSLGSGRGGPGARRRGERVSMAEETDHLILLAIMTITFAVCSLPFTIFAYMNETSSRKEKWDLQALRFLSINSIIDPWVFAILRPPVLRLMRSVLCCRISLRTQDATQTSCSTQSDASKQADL
In short: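 Cells expressing human EP2 preincubated 20 min at RT with compound (0.8 nM–16.5 μM), then stimulated 60 min with PGE2 (3× solution 1.5 nM) in PBS-IBMX. After 20 min lysis, cAMP measured by competitive HTRF with cAMP-d2 and Eu cryptate anti-cAMP antibody (665/620 nm ratio).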

[3] = molecular target: EP4 subtype of the human PGE2 receptor (Homo sapiens, UniProt P35408); assay: cAMP antagonism test on the human EP4 receptor (HTRF cAMP detection); conditions: selectivity towards hEP4, IC50 measured by cAMP antagonism test
Sequence of EP4 subtype of the human PGE2 receptor (P35408 whole entry): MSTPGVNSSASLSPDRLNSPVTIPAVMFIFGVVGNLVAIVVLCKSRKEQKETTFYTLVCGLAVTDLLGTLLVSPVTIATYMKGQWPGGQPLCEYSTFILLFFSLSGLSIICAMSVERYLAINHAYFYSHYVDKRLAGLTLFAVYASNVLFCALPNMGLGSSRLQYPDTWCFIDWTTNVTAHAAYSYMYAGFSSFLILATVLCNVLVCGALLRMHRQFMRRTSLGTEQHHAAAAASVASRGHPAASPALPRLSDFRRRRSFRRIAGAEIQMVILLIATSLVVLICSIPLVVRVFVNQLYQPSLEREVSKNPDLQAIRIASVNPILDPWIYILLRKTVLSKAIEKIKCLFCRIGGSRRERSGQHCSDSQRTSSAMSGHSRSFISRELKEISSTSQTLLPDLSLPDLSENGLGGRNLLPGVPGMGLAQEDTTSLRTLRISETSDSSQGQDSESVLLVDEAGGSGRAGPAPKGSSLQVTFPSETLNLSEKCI
In short: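 Cells expressing human EP4 preincubated 20 min at RT with compound (0.8 nM–16.5 μM), then stimulated with PGE2 (0.3 nM in 3× solution, with IBMX) 60 min at RT. After lysis, cAMP measured by HTRF competition (665/620 nm ratio); antagonism seen as rise in FRET signal.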

Compound	Selectivity hEP2/hDP [1]	IC50 [2]	Selectivity hEP2/hEP4 [3]
COCCNC(=O)c1ccc2nn(CC3CCN(C(=O)c4ccc(-c5ccc(F)cc5F)cc4)CC3)cc2c1C [Example 48, 2-({1-[(2′,4′-difluoro-biphenyl-4-yl)-carbonyl]piperidin-4-yl}methyl)-N-(2-methoxyethyl)-4-methyl-2H-indazol-5-carboxamide]	xxx (xxx > 100)	5.59 nM	xxx (xxx > 100)
COCCNC(=O)c1ccc2nn(CC3CCN(C(=O)c4ccccc4OC)CC3)cc2c1C [Example 24, 2-{[1-(2-methoxy-benzoyl)piperidin-4-yl]methyl}-N-(2-methoxyethyl)-4-methyl-2H-indazol-5-carboxamide]	xxx (xxx > 100)	60.1 nM	xxx (xxx > 100)
COCCNC(=O)c1ccc2nn(CC3CCN(C(=O)c4ccc(Oc5ccc(Cl)cc5)cc4)CC3)cc2c1C [Example 14, 2-({1-[4-(4-chloro-phenoxy)benzoyl]-piperidin-4-yl}-methyl)-N-(2-methoxyethyl)-4-methyl-2H-indazol-5-carboxamide]	xxx (xxx > 100)	3.67 nM	xxx (xxx > 100)
COCCNC(=O)c1ccc2nn(CC3CCN(C(=O)c4ccc(-c5cnc(C(F)(F)F)nc5)cc4)CC3)cc2c1C [Example 382, N-(2-methoxyethyl)-4-methyl-2-[(1-{4-[2-(trifluoromethyl)pyrimidin-5-yl]-benzoyl}piperidin-4-yl)methyl]-2H-indazol-5-carboxamide]	xxx (xxx > 100)	19.4 nM	xxx (xxx > 100)
Cc1c(C(=O)NCC2CCCCO2)ccc2nn(CC3CCN(C(=O)c4ccc(Oc5ccc(C(F)(F)F)cc5)cc4)CC3)cc12 (single isomer, unassigned) [Example 416, (R or S)-4-methyl-N-(3,4,5,6-tetrahydro-2H-pyran-2-ylmethyl)-2-[(1-{4-[4-(trifluoromethyl)phenoxy]benzoyl}piperidin-4-yl)methyl]-2H-indazol-5-carboxamide]	xxx (xxx > 100)	10.7 nM	xxx (xxx > 100)
COCCNC(=O)c1ccc2nn(CC3CCN(C(=O)c4ccc(C(F)F)cc4)CC3)cc2c1C [Example 32, 2-({1-[4-(difluoro-methyl)benzoyl]-piperidin-4-yl}-methyl)-N-(2-methoxyethyl)-4-methyl-2H-indazol-5-carboxamide]	xxx (xxx > 100)	10.4 nM	xxx (xxx > 100)
Cc1c(C(=O)NCCOC(F)(F)F)ccc2nn(CC3CCN(C(=O)c4ccc(-c5ccc(F)cc5)cc4)CC3)cc12 [Example 109, 2-({1-[(4′-fluoro-biphenyl-4-yl)-carbonyl]piperidin-4-yl}-methyl)-4-methyl-N-[2-(trifluoro-methoxy)ethyl]-2H-indazol-5-carboxamide]	xxx (xxx > 100)	9.53 nM	xxx (xxx > 100)
COCCNC(=O)c1ccc2nn(C[C@@H]3CCN(C(=O)c4ccc(OC(F)(F)F)cc4)C3)cc2c1C [Example 218, N-(2-methoxyethyl)-4-methyl-2-({(R)-1-[4-(trifluoromethoxy)benzoyl]-pyrrolidin-3-yl}methyl)-2H-indazol-5-carboxamide]	xxx (xxx > 100)	128 nM	xxx (xxx > 100)
Cc1c(C(=O)NCCOC(C)C)ccc2nn(CC3CCN(C(=O)c4ccc(Cl)cc4)CC3)cc12 [Example 96, 2-{[1-(4-chlorobenzoyl)piperidin-4-yl]methyl}-N-(2-isopropoxyethyl)-4-methyl-2H-indazol-5-carboxamide]	xxx (xxx > 100)	9.42 nM	xxx (xxx > 100)
COCCNC(=O)c1ccc2nn(CC3CCN(C(=O)c4ccc(Br)c(C)c4)CC3)cc2c1C [Example 332, 2-{[1-(4-bromo-3-methylbenzoyl)piperidin-4-yl]methyl}-N-(2-methoxyethyl)-4-methyl-2H-indazol-5-carboxamide]	xxx (xxx > 100)	5.47 nM	xxx (xxx > 100)
Cc1c(C(=O)NCCN2CCOCC2)ccc2nn(CC3CCN(C(=O)c4cccc(OC(F)(F)F)c4)CC3)cc12 [Example 61, 4-methyl-N-(2-morpholinoethyl)-2-({1-[3-(trifluoromethoxy)benzoyl]piperidin-4-yl}methyl)-2H-indazol-5-carboxamide]	xx (xx: 10-100)	1500 nM	xx (xx: 10-100)
Cc1c(C(=O)NCCOCC2CC2)ccc2nn(CC3CN(C(=O)c4ccc(Oc5ccc(F)cc5)cc4)C3)cc12 [Example 150, N-[2-(cyclopropylmethoxy)ethyl]-2-({1-[4-(4-fluorophenoxy)benzoyl]azetidin-3-yl}methyl)-4-methyl-2H-indazol-5-carboxamide]	xxx (xxx > 100)	12.8 nM	xxx (xxx > 100)
Cc1c(C(=O)NCC(F)(F)F)ccc2nn(CC3CCN(C(=O)c4nc5ccccc5n4C)CC3)cc12 [Example 297, 4-methyl-2-({1-[(1-methyl-1H-benzimidazol-2-yl)carbonyl]piperidin-4-yl}-methyl)-N-(2,2,2-trifluoroethyl)-2H-indazol-5-carboxamide]	xx (xx: 10-100)	460 nM	xx (xx: 10-100)
COCCNC(=O)c1ccc2nn(CC3CCN(C(=O)c4ccc(Br)cc4F)CC3)cc2c1C [Example 8, 2-{[1-(4-bromo-2-fluorobenzoyl)piperidin-4-yl]methyl}-N-(2-methoxyethyl)-4-methyl-2H-indazol-5-carboxamide]	xxx (xxx > 100)	9.37 nM	xxx (xxx > 100)
Cc1c(C(=O)NCCOCC(F)(F)F)ccc2nn(CC3CCN(C(=O)c4ccc(Cl)cc4)CC3)cc12 [Example 90, 2-{[1-(4-chlorobenzoyl)piperidin-4-yl]methyl}-4-methyl-N-[2-(2,2,2-trifluoro-ethoxy)ethyl]-2H-indazol-5-carboxamide]	xxx (xxx > 100)	14.8 nM	xxx (xxx > 100)
Cc1c(C(=O)NCCOCC2CC2)ccc2nn(CC3CCN(C(=O)c4ccc(Oc5ccc(F)cc5)cc4)CC3)cc12 [Example 86, N-[2-(cyclopropyl-methoxy)ethyl]-2-({1-[4-(4-fluorophenoxy)-benzoyl]piperidin-4-yl}methyl)-4-methyl-2H-indazol-5-carboxamide]	xxx (xxx > 100)	15.4 nM	xxx (xxx > 100)
